Measurements: the NIST ThermoML archive (doi:10.1016/j.jct.2007.06.014)
± gives the expanded uncertainty stated by the source.

Assay: xn = mol fraction of the nth substance listed
Details: Liquid, Bellows volumetry

CCCC [butane] + CCC
mass density [kg/m3]
Details | 280 K | 300 K | 320 K | 340 K | 360 K
1000 kPa, x2 = 0.2729 | 578.83 ± 1 | – | 528 ± 0.95 | – | –
1000 kPa, x2 = 0.5021 | 563.28 ± 1 | 537.32 ± 0.97 | – | – | –
1000 kPa, x2 = 0.7308 | 546.41 ± 0.99 | – | – | – | –
2000 kPa, x2 = 0.2729 | 580.29 ± 1.1 | – | 530.61 ± 0.96 | – | 467.01 ± 0.84
2000 kPa, x2 = 0.5021 | 564.88 ± 1 | 539.48 ± 0.97 | 511.85 ± 0.92 | 479.55 ± 0.87 | –
2000 kPa, x2 = 0.7308 | 548.19 ± 0.99 | – | 489.94 ± 0.89 | – | –
3000 kPa, x2 = 0.2729 | 581.81 ± 1.1 | – | 533.12 ± 0.96 | – | 472.48 ± 0.86
3000 kPa, x2 = 0.5021 | 566.5 ± 1 | 541.56 ± 0.98 | 514.73 ± 0.93 | 483.91 ± 0.88 | 445.79 ± 0.81
3000 kPa, x2 = 0.7308 | 550.07 ± 0.99 | – | 493.41 ± 0.89 | – | 409.73 ± 0.75
5000 kPa, x2 = 0.2729 | 584.56 ± 1.1 | – | 537.8 ± 0.97 | – | 481.94 ± 0.87
5000 kPa, x2 = 0.5021 | 569.65 ± 1 | 545.62 ± 0.98 | 519.99 ± 0.94 | 491.54 ± 0.89 | 458.29 ± 0.83
5000 kPa, x2 = 0.7308 | 553.51 ± 1 | – | 499.74 ± 0.9 | – | 428.83 ± 0.78
10000 kPa, x2 = 0.2729 | 591.21 ± 1.1 | – | 548.01 ± 0.99 | – | 499.9 ± 0.9
10000 kPa, x2 = 0.5021 | 576.66 ± 1 | 554.42 ± 1 | 531.57 ± 0.96 | 506.78 ± 0.91 | 480.01 ± 0.87
10000 kPa, x2 = 0.7308 | 561.23 ± 1 | – | 512.85 ± 0.93 | – | 456.8 ± 0.83
20000 kPa, x2 = 0.2729 | 602.5 ± 1.1 | – | 564.4 ± 1 | – | 524.51 ± 0.95
20000 kPa, x2 = 0.5021 | 588.96 ± 1.1 | 569.12 ± 1 | 549.41 ± 0.99 | 528.92 ± 0.95 | –
20000 kPa, x2 = 0.7308 | 574.44 ± 1 | – | 532.72 ± 0.96 | – | –
30000 kPa, x2 = 0.2729 | 612.44 ± 1.1 | – | 577.65 ± 1 | – | –
30000 kPa, x2 = 0.5021 | 599.33 ± 1.1 | 581.32 ± 1.1 | 563.54 ± 1 | 545.35 ± 0.98 | –
30000 kPa, x2 = 0.7308 | 585.33 ± 1.1 | – | 547.73 ± 0.99 | – | –
40000 kPa, x2 = 0.2729 | 621.14 ± 1.1 | – | 588.82 ± 1.1 | – | –
40000 kPa, x2 = 0.5021 | 608.38 ± 1.1 | 591.53 ± 1.1 | 575.17 ± 1 | 558.59 ± 1 | –
40000 kPa, x2 = 0.7308 | 594.97 ± 1.1 | – | 560.18 ± 1 | – | –
50000 kPa, x2 = 0.2729 | 628.91 ± 1.1 | – | 598.52 ± 1.1 | – | –
50000 kPa, x2 = 0.5021 | 616.39 ± 1.1 | 600.55 ± 1.1 | 585.24 ± 1.1 | 569.82 ± 1 | –
50000 kPa, x2 = 0.7308 | 603.42 ± 1.1 | – | 570.96 ± 1 | – | –
60000 kPa, x2 = 0.2729 | 635.9 ± 1.1 | – | 607.13 ± 1.1 | – | –
60000 kPa, x2 = 0.5021 | 623.79 ± 1.1 | 608.7 ± 1.1 | 594.24 ± 1.1 | 579.76 ± 1 | –
60000 kPa, x2 = 0.7308 | 611.1 ± 1.1 | – | 580.28 ± 1.1 | – | –
70000 kPa, x2 = 0.2729 | 642.5 ± 1.2 | – | 614.83 ± 1.1 | – | –
70000 kPa, x2 = 0.5021 | 630.58 ± 1.1 | 616.01 ± 1.1 | 602.33 ± 1.1 | 588.57 ± 1.1 | –
70000 kPa, x2 = 0.7308 | 618.12 ± 1.1 | – | 588.77 ± 1.1 | – | –
80000 kPa, x2 = 0.2729 | 648.79 ± 1.2 | – | 622.08 ± 1.1 | – | –
80000 kPa, x2 = 0.5021 | 636.93 ± 1.1 | 622.84 ± 1.1 | 609.65 ± 1.1 | 596.66 ± 1.1 | –
80000 kPa, x2 = 0.7308 | 624.55 ± 1.1 | – | 596.34 ± 1.1 | – | –
90000 kPa, x2 = 0.2729 | 654.49 ± 1.2 | – | 628.57 ± 1.1 | – | –
90000 kPa, x2 = 0.5021 | 642.73 ± 1.2 | 629.02 ± 1.1 | 616.63 ± 1.1 | 603.93 ± 1.1 | –
90000 kPa, x2 = 0.7308 | 630.61 ± 1.1 | – | 603.52 ± 1.1 | – | –
100000 kPa, x2 = 0.2729 | 659.68 ± 1.2 | – | 634.85 ± 1.1 | – | –
100000 kPa, x2 = 0.5021 | 648.26 ± 1.2 | 635.14 ± 1.1 | 623.18 ± 1.1 | 610.72 ± 1.1 | –
100000 kPa, x2 = 0.7308 | 636.39 ± 1.1 | – | 610.01 ± 1.1 | – | –
120000 kPa, x2 = 0.2729 | 669.67 ± 1.2 | – | 646.16 ± 1.2 | – | –
120000 kPa, x2 = 0.5021 | 658.24 ± 1.2 | 646 ± 1.2 | 634.71 ± 1.1 | 622.95 ± 1.1 | –
120000 kPa, x2 = 0.7308 | 646.6 ± 1.2 | – | 621.8 ± 1.1 | – | –
140000 kPa, x2 = 0.2729 | 678.58 ± 1.2 | – | 656.29 ± 1.2 | – | –
140000 kPa, x2 = 0.5021 | 667.41 ± 1.2 | 655.77 ± 1.2 | 644.69 ± 1.2 | 634.01 ± 1.1 | –
140000 kPa, x2 = 0.7308 | 656.14 ± 1.2 | – | 632.64 ± 1.1 | – | –
160000 kPa, x2 = 0.2729 | 686.88 ± 1.2 | – | 665.5 ± 1.2 | – | –
160000 kPa, x2 = 0.5021 | 675.8 ± 1.2 | 664.45 ± 1.2 | 654.03 ± 1.2 | 643.77 ± 1.2 | –
160000 kPa, x2 = 0.7308 | 664.71 ± 1.2 | – | 642.48 ± 1.2 | – | –
180000 kPa, x2 = 0.2729 | 694.53 ± 1.2 | – | 673.94 ± 1.2 | – | –
180000 kPa, x2 = 0.5021 | 683.54 ± 1.2 | 672.59 ± 1.2 | 662.68 ± 1.2 | 652.74 ± 1.2 | –
180000 kPa, x2 = 0.7308 | 672.47 ± 1.2 | – | 651.07 ± 1.2 | – | –
200000 kPa, x2 = 0.2729 | 701.52 ± 1.3 | – | 681.74 ± 1.2 | – | –
200000 kPa, x2 = 0.5021 | 690.83 ± 1.2 | 680.14 ± 1.2 | 670.56 ± 1.2 | 660.89 ± 1.2 | –
200000 kPa, x2 = 0.7308 | 679.87 ± 1.2 | – | 659.14 ± 1.2 | – | –
